Assay results from PubChem BioAssay AID1919006 (Molecular Pharmacology Branch, DTP, NCI, 2023).
Several values for one entry are separate records, joined by “and”; a condition that tells them apart may be missing. Identical values can stand only once.

Tested on: 885512-296-R-J2-PDC complex spheroid growth, % test/control
Test: Anticancer human tumor 885512-296-R-J2-PDC patient-derived breast carcinoma cell line growth inhibition [AhR]
Settings: for viability, T/C: stronger effect = lower value
Procedure, shortened: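 Complex tumor spheroids co-cultured with HUVEC and human MSC stroma; AhR antagonists tested in combination with standard-of-care and investigational agents. Top concentration at or near clinical Cmax (else 10 microM), half-log dilutions; growth expressed as percent test/control.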

[1] = curve of first compound, second compound 0.1 µM
[2] = curve of first compound, second compound 0.316 µM
[3] = curve of first compound, second compound 1 µM
[4] = curve of first compound, second compound 3.16 µM
[5] = curve of first compound, second compound 10 µM
[6] = second compound 0.1 µM, first compound 0.0316 µM
[7] = second compound 0.1 µM, first compound 0.1 µM
[8] = second compound 0.1 µM, first compound 0.316 µM
[9] = second compound 0.1 µM, first compound 1 µM
[10] = second compound 0.1 µM, first compound 3.16 µM
[11] = second compound 0.1 µM, first compound 10 µM
[12] = second compound 0.316 µM, first compound 0.0316 µM
[13] = second compound 0.316 µM, first compound 0.1 µM
[14] = second compound 0.316 µM, first compound 0.316 µM
[15] = second compound 0.316 µM, first compound 1 µM
[16] = second compound 0.316 µM, first compound 3.16 µM
[17] = second compound 0.316 µM, first compound 10 µM
[18] = second compound 1 µM, first compound 0.0316 µM
[19] = second compound 1 µM, first compound 0.1 µM
[20] = second compound 1 µM, first compound 0.316 µM
[21] = second compound 1 µM, first compound 1 µM
[22] = second compound 1 µM, first compound 3.16 µM
[23] = second compound 1 µM, first compound 10 µM
[24] = second compound 3.16 µM, first compound 0.0316 µM
[25] = second compound 3.16 µM, first compound 0.1 µM
[26] = second compound 3.16 µM, first compound 0.316 µM
[27] = second compound 3.16 µM, first compound 1 µM
[28] = second compound 3.16 µM, first compound 3.16 µM
[29] = second compound 3.16 µM, first compound 10 µM
[30] = second compound 10 µM, first compound 0.0316 µM
[31] = second compound 10 µM, first compound 0.1 µM
[32] = second compound 10 µM, first compound 0.316 µM
[33] = second compound 10 µM, first compound 1 µM
[34] = second compound 10 µM, first compound 3.16 µM
[35] = second compound 10 µM, first compound 10 µM
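Also: spheroids exposed to compounds for seven days.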

Compound | IC50 [1] [nM] | IC50 [2] [nM] | IC50 [3] [nM] | IC50 [4] [nM] | IC50 [5] [nM] | viability, T/C [6] [%] | viability, T/C [7] [%] | viability, T/C [8] [%] | viability, T/C [9] [%] | viability, T/C [10] [%] | viability, T/C [11] [%] | viability, T/C [12] [%] | viability, T/C [13] [%] | viability, T/C [14] [%] | viability, T/C [18] [%] | viability, T/C [19] [%] | viability, T/C [24] [%] | viability, T/C [25] [%] | viability, T/C [30] [%] | viability, T/C [31] [%] | also measured
CCc1c2c(nc3ccc(O)cc13)-c1cc3c(c(=O)n1C2)COC(=O)[C@]3(O)CC | – | – | – | – | – | – | – | – | – | – | – | – | – | – | – | – | – | – | – | – | viability, T/C (compound 0.000949 µM): 17.5% and 17.7% and 9.88%; viability, T/C (compound 0.003 µM): 9.21% and 7.45% and 8.07%; viability, T/C (compound 0.00949 µM): 6.22% and 5.99% and 5.4%; viability, T/C (compound 0.03 µM): 4.21% and 4.52% and 3.14%; viability, T/C (compound 0.0949 µM): 2.53% and 2.06% and 1.76%; viability, T/C (compound 0.3 µM): 1.46% and 1.11% and 1.27%; IC50 (curve of compound): < 0.949 nM
NS(=O)(=O)OCC1CC(n2ccc3c(NC4CCc5ccccc54)ncnc32)CC1O (configuration not stated) + Cc1cncc(-c2nc(NCCc3c[nH]c4ccccc34)c3ncn(C(C)C)c3n2)c1 | 90.4 | 89.4 | 77.4 | 43.6 | < 31.6 | 96.2 | 45.6 | 16.5 | 8.26 | 5.94 | 6.36 | 89.7 | 45.6 | 17.4 | 81.3 | 41 | 58.5 | 28 | 10.3 | 8.3 | viability, T/C [15]: 6.34%; viability, T/C [16]: 6.04%; viability, T/C [17]: 5.52%; viability, T/C [20]: 13.9%; viability, T/C [21]: 5.67%; viability, T/C [22]: 4.18%; viability, T/C [23]: 4.92%; viability, T/C [26]: 8.09%; viability, T/C [27]: 3.67%; viability, T/C [28]: 3.02%; viability, T/C [29]: 2.73%; viability, T/C [32]: 3.54%; viability, T/C [33]: 2.33%; viability, T/C [34]: 1.76%; viability, T/C [35]: 1.73%
COc1cccc2c1C(=O)c1c(O)c3c(c(O)c1C2=O)CC(O)(C(=O)CO)CC3OC1CC(N)C(O)C(C)O1 (configuration not stated) + Cc1cncc(-c2nc(NCCc3c[nH]c4ccccc34)c3ncn(C(C)C)c3n2)c1 | < 31.6 | < 31.6 | < 31.6 | < 31.6 | < 31.6 | 23.9 | 15.2 | 5.94 | 0.65 | 2.45 | 1.44 | 24.4 | 19.5 | 6.25 | 19.7 | 17.9 | 17.6 | 12.1 | 11.9 | 5.06 | viability, T/C [15]: 0.34%; viability, T/C [16]: 2.13%; viability, T/C [17]: 1.46%; viability, T/C [20]: 5.13%; viability, T/C [21]: 0.84%; viability, T/C [22]: 1.28%; viability, T/C [23]: 1.33%; viability, T/C [26]: 3.2%; viability, T/C [27]: 0.73%; viability, T/C [28]: 0.57%; viability, T/C [29]: 0.58%; viability, T/C [32]: 0.48%; viability, T/C [33]: 0.21%; viability, T/C [34]: 0.27%; viability, T/C [35]: 0.26%
COc1ccc([C@@H](O)c2cc(-c3ncnc4cc(N5CCOCC5)ccc34)c(F)cc2Cl)nn1 + Cc1cncc(-c2nc(NCCc3c[nH]c4ccccc34)c3ncn(C(C)C)c3n2)c1 | > 10000 | 8020 | 6100 | 933 | < 31.6 | 101 | 93.2 | 87.4 | 87.3 | 63.1 | 51.7 | 104 | 89.7 | 81.9 | 90.9 | 78.4 | 55.2 | 55.5 | 18.1 | 15.5 | viability, T/C [15]: 86.5%; viability, T/C [16]: 65.9%; viability, T/C [17]: 45.1%; viability, T/C [20]: 86.8%; viability, T/C [21]: 77.7%; viability, T/C [22]: 63.2%; viability, T/C [23]: 39.5%; viability, T/C [26]: 48.2%; viability, T/C [27]: 53.3%; viability, T/C [28]: 42.6%; viability, T/C [29]: 32.4%; viability, T/C [32]: 16.1%; viability, T/C [33]: 13.2%; viability, T/C [34]: 11.3%; viability, T/C [35]: 9.01%
COc1cccc2c1C(=O)c1c(O)c3c(c(O)c1C2=O)CC(O)(C(=O)CO)CC3OC1CC(N)C(O)C(C)O1 (configuration not stated) + CC(CO)NC(=O)c1cc(-c2ccc(Cl)cc2)nn(-c2cnn(C)c2)c1=O | < 31.6 | < 31.6 | < 31.6 | < 31.6 | < 31.6 | 26.3 | 15.5 | 6.77 | 0.48 | 0.93 | 0.78 | 21.1 | 14.9 | 7.09 | 24.6 | 14.6 | 21.3 | 21.2 | 15.4 | 19.3 | viability, T/C [15]: 0.26%; viability, T/C [16]: 1.12%; viability, T/C [17]: 0.78%; viability, T/C [20]: 6.76%; viability, T/C [21]: 0.2%; viability, T/C [22]: 1.11%; viability, T/C [23]: 1.04%; viability, T/C [26]: 3.93%; viability, T/C [27]: 0.22%; viability, T/C [28]: 0.98%; viability, T/C [29]: 0.67%; viability, T/C [32]: 3.22%; viability, T/C [33]: 0.46%; viability, T/C [34]: 0.54%; viability, T/C [35]: 0.83%

More lines, main results first:

IC50 [1] [nM] | IC50 [2] [nM] | IC50 [3] [nM] | IC50 [4] [nM] | IC50 [5] [nM] | Compound | viability, T/C [6] [%] | viability, T/C [7] [%] | viability, T/C [8] [%] | viability, T/C [9] [%] | viability, T/C [10] [%] | viability, T/C [11] [%] | viability, T/C [12] [%] | viability, T/C [13] [%] | viability, T/C [14] [%] | viability, T/C [18] [%] | viability, T/C [19] [%] | viability, T/C [24] [%] | viability, T/C [25] [%] | viability, T/C [30] [%] | viability, T/C [31] [%] | also measured
2440 | 234 | 456 | 1350 | > 10000 | COc1cc(Nc2ncc3c(n2)-c2ccc(Cl)cc2C(c2c(F)cccc2OC)=NC3)ccc1C(=O)O + CC(CO)NC(=O)c1cc(-c2ccc(Cl)cc2)nn(-c2cnn(C)c2)c1=O | 53 | 48.3 | 51.4 | 57.6 | 46.4 | 48.3 | 54.9 | 45.5 | 55 | 57.6 | 51.2 | 59.6 | 55.5 | 48.5 | 59.5 | viability, T/C [15]: 43.3%; viability, T/C [16]: 45%; viability, T/C [17]: 37%; viability, T/C [20]: 55.7%; viability, T/C [21]: 46.7%; viability, T/C [22]: 43%; viability, T/C [23]: 50.2%; viability, T/C [26]: 51.2%; viability, T/C [27]: 55.5%; viability, T/C [28]: 44.6%; viability, T/C [29]: 46.2%; viability, T/C [32]: 58.4%; viability, T/C [33]: 62.3%; viability, T/C [34]: 56.2%; viability, T/C [35]: 50.5%
5.02 | 5.48 | 5.01 | 4.59 | 2.08 | CC[C@@]1(O)C(=O)OCc2c1cc1n(c2=O)Cc2cc3c(CN(C)C)c(O)ccc3nc2-1 + Cc1ccccc1N=Nc1ccc(NC(=O)c2ccnn2C)c(C)c1 | 8.84 | 6.78 | – | – | – | – | 8.71 | 7.03 | – | 8.48 | 8.35 | 9.81 | 7.76 | 9.21 | 7.45 | viability, T/C (second compound 0.1 µM, first compound 0.000316 µM): 109%; viability, T/C (second compound 0.1 µM, first compound 0.001 µM): 103%; viability, T/C (second compound 0.1 µM, first compound 0.00316 µM): 67.5%; viability, T/C (second compound 0.1 µM, first compound 0.01 µM): 23.7%; viability, T/C (second compound 0.316 µM, first compound 0.000316 µM): 113%; viability, T/C (second compound 0.316 µM, first compound 0.001 µM): 113%; viability, T/C (second compound 0.316 µM, first compound 0.00316 µM): 74.7%; viability, T/C (second compound 0.316 µM, first compound 0.01 µM): 23%; viability, T/C (second compound 1 µM, first compound 0.000316 µM): 117%; viability, T/C (second compound 1 µM, first compound 0.001 µM): 111%; viability, T/C (second compound 1 µM, first compound 0.00316 µM): 70.7%; viability, T/C (second compound 1 µM, first compound 0.01 µM): 18.9%; viability, T/C (second compound 3.16 µM, first compound 0.000316 µM): 107%; viability, T/C (second compound 3.16 µM, first compound 0.001 µM): 95.4%; viability, T/C (second compound 3.16 µM, first compound 0.00316 µM): 61.1%; viability, T/C (second compound 3.16 µM, first compound 0.01 µM): 26.5%; viability, T/C (second compound 10 µM, first compound 0.000316 µM): 54.6%; viability, T/C (second compound 10 µM, first compound 0.001 µM): 57.7%; viability, T/C (second compound 10 µM, first compound 0.00316 µM): 46.3%; viability, T/C (second compound 10 µM, first compound 0.01 µM): 21.4%
